Data taken from publication PMC10119423, “From PERK to RIPK1: Design, synthesis and evaluation of novel potent and selective necroptosis inhibitors” (Frontiers in Chemistry, 2023).

Key:
[1] = target: T1, RIPK1 (Mus musculus, UniProt Q60855); test: RIPK1 autophosphorylation (pS166) by Western blot in MEFs stimulated with hTNF + TAK1i + zVAD.fmk; type: cell-based; details: immortalised MEFs, 30 min pretreatment with zVAD.fmk 50 μM, TAK1i 1 μM and compound, hTNF 20 ng/ml for 2.5 h, read-out: RIPK1 inhibition (IC50 estimated from a Western blot)
T1 construct: endogenous in cells; host or cells: immortalized mouse embryonic fibroblasts (MEFs, C57Bl6/J)
T1 sequence (Q60855 1-656): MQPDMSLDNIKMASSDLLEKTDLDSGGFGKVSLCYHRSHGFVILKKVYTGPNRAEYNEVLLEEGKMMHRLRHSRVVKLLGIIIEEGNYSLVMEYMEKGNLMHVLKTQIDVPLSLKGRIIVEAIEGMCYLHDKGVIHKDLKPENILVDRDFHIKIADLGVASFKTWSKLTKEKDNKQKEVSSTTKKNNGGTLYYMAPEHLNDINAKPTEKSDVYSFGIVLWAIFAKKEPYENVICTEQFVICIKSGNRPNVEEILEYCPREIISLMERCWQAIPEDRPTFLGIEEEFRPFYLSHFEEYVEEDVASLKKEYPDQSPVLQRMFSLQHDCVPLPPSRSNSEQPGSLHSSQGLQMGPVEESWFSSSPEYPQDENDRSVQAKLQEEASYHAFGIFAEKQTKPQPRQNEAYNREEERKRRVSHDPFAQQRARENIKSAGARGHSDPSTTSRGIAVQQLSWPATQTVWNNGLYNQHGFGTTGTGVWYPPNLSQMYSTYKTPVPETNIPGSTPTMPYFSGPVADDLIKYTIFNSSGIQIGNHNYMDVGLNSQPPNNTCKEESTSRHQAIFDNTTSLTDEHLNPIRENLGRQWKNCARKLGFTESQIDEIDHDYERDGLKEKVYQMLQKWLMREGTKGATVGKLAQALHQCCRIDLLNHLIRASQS
Description: MEFs were seeded in 6-well plates at a density of 300.000 cells/well in 2 mL. The next day, the cells were suspended in 1 mL of medium and pre-treated for 30 min with the indicated compounds at 1/5 dilutions series for PERK ranging from 5 to 0.04 µM and 1 μg/mL of Tm followed by 4 h treatment with 20 ng/mL of hTNF. For RIPK1, the cells were pre-treated at 1/10 dilutions series ranging from 10 to 0.01 nM, 50 µM zVAD.fmk and 1 µM TAKi before stimulation with 20 ng/mL of hTNF for 2.5 h. Then, the cells were washed two times with 1 mL of ice-cold PBS before lysis in 0.2 mL of Laemmli buffer 1x (10% (w/v) SDS, 50% glycerol, 0.5% bromophenol blue, 250 mM Tris–HCl pH 6.8) and 250 mM of dithiothreitol (DTT). The cell lysate was then collected and boiled at 95 °C for 10min and stored at −20°C. Proteins expression was later monitored by immunoblotting.
Activation of PERK was induced by stimulation of the cells with Tunicamycin, as previsouly reported ([Bull and Thiede, 2012]). More precisely, the immortalised MEFs were pre-incubated for 30 min with the analogues 18–34 at different concentrations (0.04, 0.2, 1, and 5 µM) prior to 4 h stimulation with Tunicamycin (1 μg/mL). […] Their activities were evaluated by comparing the intensity of the signal to unstimulated MEFs (considered as zero phosphorylation) and Tunicamycin stimulated cells (considered as 100% PERK phosphorylation). The 12 compounds (18–20, 22–29 and 34) that had lost their inhibitory capacity on PERK were then tested for their ability to inhibit RIPK1 as shown in Figures 6A–H. Activation and autophosphorylation of RIPK1 was induced by stimulating the cells with TNF in the presence of TAK1 inhibitor and of the pan-caspases inhibitor zVAD.fmk, a well established necroptotic trigger ([Vanlangenakker et al., 2011]). The MEFs were pre-incubated for 30 min with the different compounds (0.01 nM–1000 nM) and then stimulated with human TNF (20 ng/mL) for 2.5 h. Similar to the PERK assessment, IC50 values for RIPK1 inhibition were estimated as a range of concentrations, and are reported in Table 1. These experiments provide an estimation of the specificity of our analogues against PERK and RIPK1 in comparison to the benchmark GSK’157 already reported as a potent PERK and RIPK1 inhibitor.

[2] = system: MEFs; test: RIPK1 kinase-dependent apoptosis (hTNF + TAK1i) in MEFs, Sytox Green; type: cell-based; details: Mus musculus, TAK1i + hTNF (100 pg/mL)
Excerpt: In MEFs, TNF together with the pan caspases inhibitor zVAD.fmk induces RIPK1-dependent necroptosis while TNF together with TAK1 inhibitor induces RIPK1 kinase-dependent apoptosis. We also included the conditions selected for the Western blot experiments, where necroptosis was induced by the combination of hTNF, zVAD.fmk and TAK1 inhibitor.

[3] = target: T2, RIPK1 (h) (Homo sapiens, UniProt Q13546); test: KinaseProfiler assay (Eurofins Cerep), hRIPK1 inhibition; type: biochemical; details: 9 concentrations (0.0001 μM–1.0 μM), 10 μM ATP
T2 construct: purchased Eurofins Cerep (KinaseProfiler service)
T2 sequence (Q13546 1-671): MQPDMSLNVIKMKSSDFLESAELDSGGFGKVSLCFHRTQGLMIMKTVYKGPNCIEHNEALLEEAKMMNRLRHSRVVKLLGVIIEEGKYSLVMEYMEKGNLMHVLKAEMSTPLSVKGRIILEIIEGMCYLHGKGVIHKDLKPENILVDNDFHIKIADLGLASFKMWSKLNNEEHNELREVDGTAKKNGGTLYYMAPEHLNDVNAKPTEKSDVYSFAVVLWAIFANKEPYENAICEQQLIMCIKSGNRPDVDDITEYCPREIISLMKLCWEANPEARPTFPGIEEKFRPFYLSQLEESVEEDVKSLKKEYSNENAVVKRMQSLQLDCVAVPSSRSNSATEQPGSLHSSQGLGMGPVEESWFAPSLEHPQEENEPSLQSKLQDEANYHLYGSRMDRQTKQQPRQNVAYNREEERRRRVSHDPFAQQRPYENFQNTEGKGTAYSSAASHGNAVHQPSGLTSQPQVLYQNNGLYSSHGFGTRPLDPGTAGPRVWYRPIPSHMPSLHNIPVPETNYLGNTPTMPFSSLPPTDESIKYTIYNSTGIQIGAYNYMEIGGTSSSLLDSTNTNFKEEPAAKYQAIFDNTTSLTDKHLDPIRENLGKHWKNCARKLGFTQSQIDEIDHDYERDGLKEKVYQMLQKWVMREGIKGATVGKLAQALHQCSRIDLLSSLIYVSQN
Description: RIPK1 (h) is incubated with 8 mM MOPS pH 7.0, 0.2 mM EDTA, 0.33 mg/mL myelin basic protein, 10 mM Magnesium acetate and [γ-^33P-ATP] (specific activity and concentration as required). The reaction is initiated by the addition of the Mg/ATP mix. After incubation for 120 min at room temperature, the reaction is stopped by the addition of phosphoric acid to a concentration of 0.5%.

Cn1cc(-c2ccc3c(c2F)CCN3C(=O)Cc2ccc(C(F)(F)F)cn2)c2c(N)ncnc21 [Compound 22]
IC50 [1]: 1 to 10 nM
IC50 [2]: 3.3 nM
IC50 [3]: 139 nM
